Test results reported in publication PMC6297231 (Nature Communications, 2018).

How the values were obtained:
Assay in all cases: cells
[1] = tested on: H1975; settings: Homo sapiens, NCI-H1975, 6 h, read-out: AZD5991 6h EC50
Procedure: (§1) Cells were plated at 3000 cells/well in 384-well white plates in corresponding cell growth media. […] Caspase-3/7 activation was subsequently determined using a Caspase-Glo 3/7 Reagent (Promega) and viability was assayed using the CellTiter-Glo Reagent (Promega) as described in manufacturer’s instructions. Dose–response curves for caspase-3/7 activation and viability were plotted and analyzed (including EC50 and GI50 determination) using GraphPad Prism. Percentage of caspase activation was calculated against the maximum caspase activation value (100%) obtained with a proprietary cell kill control.

[2] = tested on: OCILY7; settings: Homo sapiens, OCI-Ly7, 6 h, read-out: AZD5991 6h EC50
Procedure: as §1

[3] = tested on: ARH77; settings: Homo sapiens, ARH-77, 6 h, read-out: AZD5991 6h EC50
Procedure: as §1

[4] = tested on: L363; settings: Homo sapiens, L-363, 6 h, read-out: AZD5991 6h EC50
Procedure: as §1

[5] = tested on: THP-1; settings: Homo sapiens, THP-1, 6 h, read-out: AZD5991 6h EC50
Procedure: as §1

[6] = tested on: ZR751; settings: Homo sapiens, ZR-75-1, 6 h, read-out: AZD5991 6h EC50
Procedure: as §1

[7] = tested on: MONOMAC6; settings: Homo sapiens, MONO-MAC-6, 6 h, read-out: AZD5991 6h EC50
Procedure: as §1

[8] = tested on: H526; settings: Homo sapiens, NCI-H526, 6 h, read-out: AZD5991 6h EC50
Procedure: as §1

[9] = tested on: RCPIWM1; settings: 6 h, read-out: AZD5991 6h EC50
Procedure: as §1

[10] = tested on: DMS114; settings: Homo sapiens, DMS-114, 6 h, read-out: AZD5991 6h EC50
Procedure: as §1

[11] = tested on: H82; settings: Homo sapiens, NCI-H82, 6 h, read-out: AZD5991 6h EC50
Procedure: as §1

[12] = tested on: Sudhl16; settings: Homo sapiens, SU-DHL-16, 6 h, read-out: AZD5991 6h EC50
Procedure: as §1

[13] = tested on: H196; settings: NCI-H196, 6 h, read-out: AZD5991 6h EC50
Procedure: as §1

[14] = tested on: Sudhl6; settings: Homo sapiens, SU-DHL-6, 6 h, read-out: AZD5991 6h EC50
Procedure: as §1

[15] = tested on: HBL1; settings: HBL1, 6 h, read-out: AZD5991 6h EC50
Procedure: as §1

[16] = tested on: SKMEL3; settings: Homo sapiens, SK-MEL3, 6 h, read-out: AZD5991 6h EC50
Procedure: as §1

[17] = tested on: KMS26; settings: KMS-26, 6 h, read-out: AZD5991 6h EC50
Procedure: as §1

[18] = tested on: Bjab; settings: Homo sapiens, 6 h, read-out: AZD5991 6h EC50
Procedure: as §1

[19] = tested on: H146; settings: Homo sapiens, NCI-H146, 6 h, read-out: AZD5991 6h EC50
Procedure: as §1

[20] = tested on: OPM2; settings: Homo sapiens, OPM-2, 6 h, read-out: AZD5991 6h EC50
Procedure: as §1

[21] = tested on: H2286; settings: Homo sapiens, NCI-H2286, 6 h, read-out: AZD5991 6h EC50
Procedure: as §1

[22] = tested on: Kasumi1; settings: Homo sapiens, Kasumi 1, 6 h, read-out: AZD5991 6h EC50
Procedure: as §1

[23] = tested on: H1048; settings: Homo sapiens, NCI-H1048, 6 h, read-out: AZD5991 6h EC50
Procedure: as §1

[24] = tested on: DU145; settings: Homo sapiens, DU-145, 6 h, read-out: AZD5991 6h EC50
Procedure: as §1

[25] = tested on: OCILY10; settings: Homo sapiens, OCI-Ly10, 6 h, read-out: AZD5991 6h EC50
Procedure: as §1

[26] = tested on: Raji; settings: Homo sapiens, 6 h, read-out: AZD5991 6h EC50
Procedure: as §1

[27] = tested on: AMO1; settings: Homo sapiens, AMO1, 6 h, read-out: AZD5991 6h EC50
Procedure: as §1

[28] = tested on: 5637; settings: 6 h, read-out: AZD5991 6h EC50
Procedure: as §1

[29] = tested on: WSUDLCL2; settings: Homo sapiens, WSUDLCL2, 6 h, read-out: AZD5991 6h EC50
Procedure: as §1

[30] = tested on: GIST T1; settings: Homo sapiens, GISTT1, 6 h, read-out: AZD5991 6h EC50
Procedure: as §1

[31] = tested on: OVCAR3; settings: Homo sapiens, OVCAR-3, 6 h, read-out: AZD5991 6h EC50
Procedure: as §1

[32] = tested on: G361; settings: Homo sapiens, G-361, 6 h, read-out: AZD5991 6h EC50
Procedure: as §1

[33] = tested on: Sudhl4; settings: Homo sapiens, SU-DHL-4, 6 h, read-out: AZD5991 6h EC50
Procedure: as §1

[34] = tested on: H209; settings: Homo sapiens, NCI-H209, 6 h, read-out: AZD5991 6h EC50
Procedure: as §1

Question: Which EC50 [1] does the source give for `Cc1c2c(nn1C)CSCc1cc(n(C)n1)CSc1cc(c3ccccc3c1)OCCCc1c(C(=O)O)n(C)c3c-2c(Cl)ccc13` (atropisomer, axis not shown; (Ra)) [(Ra)-7] here?
Answer: > 30 µM

Question: What about the EC50 [2] of the same compound?
Answer: 0.036 µM

Question: What about the EC50 [3] of the same compound?
Answer: 23.9 µM

Question: And the EC50 [4]?
Answer: 0.09 µM

Question: And the EC50 [5]?
Answer: 0.125 µM

Question: What about the EC50 [6] of the same compound?
Answer: > 30 µM

Question: What about the EC50 [7] of the same compound?
Answer: 0.268 µM

Question: What about the EC50 [8] of the same compound?
Answer: > 30 µM

Question: And the EC50 [9]?
Answer: 0.039 µM

Question: And the EC50 [10]?
Answer: 0.29 µM

Question: And the EC50 [11]?
Answer: 0.201 µM

Question: And the EC50 [12]?
Answer: 0.139 µM

Question: And the EC50 [13]?
Answer: > 30 µM

Question: What about the EC50 [14] of the same compound?
Answer: 0.056 µM

Question: And the EC50 [15]?
Answer: 25.8 µM

Question: And the EC50 [16]?
Answer: > 30 µM

Question: What about the EC50 [17] of the same compound?
Answer: 0.144 µM

Question: What about the EC50 [18] of the same compound?
Answer: 0.047 µM

Question: And the EC50 [19]?
Answer: > 30 µM

Question: And the EC50 [20]?
Answer: 0.059 µM

Question: And the EC50 [21]?
Answer: > 30 µM

Question: And the EC50 [22]?
Answer: 0.297 µM

Question: And the EC50 [23]?
Answer: > 30 µM

Question: And the EC50 [24]?
Answer: > 30 µM

Question: What about the EC50 [25] of the same compound?
Answer: 0.117 µM

Question: What about the EC50 [26] of the same compound?
Answer: 7.4 µM

Question: And the EC50 [27]?
Answer: 0.09 µM

Question: What about the EC50 [28] of the same compound?
Answer: 0.107 µM

Question: And the EC50 [29]?
Answer: 0.159 µM

Question: What about the EC50 [30] of the same compound?
Answer: > 30 µM

Question: And the EC50 [31]?
Answer: > 30 µM

Question: And the EC50 [32]?
Answer: 2.44 µM

Question: What about the EC50 [33] of the same compound?
Answer: 0.266 µM

Question: What about the EC50 [34] of the same compound?
Answer: > 30 µM
